Assay results reported in patent US11040027B2, “Protein kinase inhibitors for promoting liver regeneration or reducing or preventing hepatocyte death” (HEPAREGENIX GMBH, priority 2017, dated 2021).

Key:
BRaf = BRaf (Homo sapiens, UniProt P15056); experiment: KINOMEscan competition binding assay, selectivity BRaf versus MKK4; conditions: Test conc. 0.1 μM; ratio of percent of control; N/E* per footnote
Experimental: The assay was performed by combining three components: DNA-tagged kinase; immobilized ligand; and a test compound. The ability of the test compound to compete with the immobilized ligand was measured via quantitative PCR of the DNA tag. The technology is described in detail in Fabian, M. A. et al. A small molecule-kinase interaction map for clinical kinase inhibitors. Nat. […] Nat.
The test compounds were provided as 10 mM stock solutions. The test solutions at indicated final concentrations were prepared at DiscoverX.

MKK4 active = target: T1, MKK4 active (Homo sapiens, UniProt P45985); experiment: Radiometric protein kinase assay, MKK4 active; type: biochemical; conditions: substrate JNK1 KRKR, ATP 0.2 μM, read-out: MKK4 (potency derived from IC50-values)
T1 construct: purchased ProQinase 0948-0000-1
T1 sequence (P45985 1-399): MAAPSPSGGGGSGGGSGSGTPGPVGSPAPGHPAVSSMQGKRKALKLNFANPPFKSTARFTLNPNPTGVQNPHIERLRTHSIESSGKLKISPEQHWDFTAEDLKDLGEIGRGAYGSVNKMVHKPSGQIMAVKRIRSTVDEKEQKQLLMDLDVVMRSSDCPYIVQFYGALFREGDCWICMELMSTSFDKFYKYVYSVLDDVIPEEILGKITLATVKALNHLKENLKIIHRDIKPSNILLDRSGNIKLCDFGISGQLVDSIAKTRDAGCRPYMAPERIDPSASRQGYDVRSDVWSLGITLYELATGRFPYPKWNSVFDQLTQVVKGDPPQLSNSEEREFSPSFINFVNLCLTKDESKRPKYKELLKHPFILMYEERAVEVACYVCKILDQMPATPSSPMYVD
Experimental: (§1) A radiometric protein kinase assay was used for measuring the kinase activity of the respective protein kinases. All kinase assays were performed in 96-well polypropylene plates. After the reactions were stopped, the assay mixtures were transferred to 96-well MSFC filter-plates (Millipore). The reaction mix was passed through the filter membrane by aspiration, the membrane was washed 3 times with 150 mM H3PO4, once with ethanol, dried and liquid scintillation cocktail was added. Radioactivity was determined by counting of the samples in a Microbeta multiwell scintillation counter (Wallac).
(§2) b) Single Kinases • 20 μl standard assay buffer • 5 μl compound in 10% DMSO • 20 μl enzyme-substrate mix • 10 μl of substrate solution
(§3) The reaction cocktails were incubated at 30° C. for 30 minutes.

MEKK2 = target: T2, MEKK2 (Homo sapiens, UniProt Q9Y2U5); experiment: Radiometric protein kinase assay, MEKK2; type: biochemical; conditions: substrate Casein, ATP 0.2 μM; read-out: MEKK2 (potency derived from IC50-values)
T2 construct: purchased ProQinase 0583-0000-1
T2 sequence (Q9Y2U5 1-619): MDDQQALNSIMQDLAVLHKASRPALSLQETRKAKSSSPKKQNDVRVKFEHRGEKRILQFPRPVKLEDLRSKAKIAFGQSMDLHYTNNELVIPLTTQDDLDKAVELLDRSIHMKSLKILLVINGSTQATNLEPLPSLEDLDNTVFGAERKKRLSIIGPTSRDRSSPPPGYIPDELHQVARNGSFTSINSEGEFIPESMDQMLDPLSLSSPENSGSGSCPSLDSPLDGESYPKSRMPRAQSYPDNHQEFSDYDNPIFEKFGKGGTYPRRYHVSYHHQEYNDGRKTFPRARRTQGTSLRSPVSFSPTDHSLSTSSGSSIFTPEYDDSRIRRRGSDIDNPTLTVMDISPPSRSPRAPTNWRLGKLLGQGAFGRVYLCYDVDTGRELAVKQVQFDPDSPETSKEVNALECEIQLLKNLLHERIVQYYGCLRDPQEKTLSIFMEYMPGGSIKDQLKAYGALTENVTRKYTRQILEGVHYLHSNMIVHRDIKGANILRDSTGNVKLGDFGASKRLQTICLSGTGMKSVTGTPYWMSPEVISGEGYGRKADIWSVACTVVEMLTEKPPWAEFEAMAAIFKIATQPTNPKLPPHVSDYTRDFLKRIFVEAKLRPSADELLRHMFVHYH
Experimental: as §1, §2, §3

MKK4 = target: T3, MKK4 (Homo sapiens, UniProt P45985); experiment: KINOMEscan competition binding assay, MKK4; conditions: read-out: Potency MKK4 (derived from % of control values, PoC)
T3 sequence (P45985 84-399): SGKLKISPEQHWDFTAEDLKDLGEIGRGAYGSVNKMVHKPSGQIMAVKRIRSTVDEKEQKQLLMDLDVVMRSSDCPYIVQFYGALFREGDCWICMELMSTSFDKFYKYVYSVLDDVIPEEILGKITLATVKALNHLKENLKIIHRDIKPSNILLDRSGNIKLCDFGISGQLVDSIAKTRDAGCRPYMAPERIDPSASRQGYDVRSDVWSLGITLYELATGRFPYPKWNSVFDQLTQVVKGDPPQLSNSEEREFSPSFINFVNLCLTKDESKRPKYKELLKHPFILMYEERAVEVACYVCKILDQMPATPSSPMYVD

JNK1 = JNK1 (Homo sapiens, UniProt P45983); experiment: KINOMEscan competition binding assay, selectivity JNK1 versus MKK4; conditions: ratio of percent of control
Sequence of JNK1 (P45983 1-384 isoform P45983-2): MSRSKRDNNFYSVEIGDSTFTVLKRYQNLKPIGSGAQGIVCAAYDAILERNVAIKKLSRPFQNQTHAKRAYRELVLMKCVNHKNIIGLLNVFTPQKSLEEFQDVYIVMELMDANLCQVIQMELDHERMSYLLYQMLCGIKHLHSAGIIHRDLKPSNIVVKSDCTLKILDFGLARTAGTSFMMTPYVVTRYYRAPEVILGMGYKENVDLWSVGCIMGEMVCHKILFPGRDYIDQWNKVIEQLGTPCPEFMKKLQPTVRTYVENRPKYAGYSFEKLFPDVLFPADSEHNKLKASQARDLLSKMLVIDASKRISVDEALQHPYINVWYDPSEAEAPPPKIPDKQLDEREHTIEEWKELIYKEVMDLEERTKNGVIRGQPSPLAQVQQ
Experimental: For investigation of the affinity to MKK4, MKK7 and JNK1, the kinases were produced in HEK-293 cells and subsequently tagged with DNA for qPCR detection. […] The liganded beads were blocked with excess biotin and washed with blocking buffer (SEABLOCK™ (Pierce), 1% BSA, 0.05% TWEEN®20, 1 mM DTT) to remove unbound ligand and to reduce nonspecific binding. […] All reactions were performed in polystyrene 96-well plates in a final volume of 0.135 mL. […] The kinase concentration in the eluates was measured by qPCR.

MKK7 = target: T4, MKK7 (Homo sapiens, UniProt O14733); experiment: KINOMEscan competition binding assay, selectivity MKK7 versus MKK4; conditions: Test conc. 0.1 μM; ratio of percent of control; N/E* per footnote
T4 sequence (O14733 1-419): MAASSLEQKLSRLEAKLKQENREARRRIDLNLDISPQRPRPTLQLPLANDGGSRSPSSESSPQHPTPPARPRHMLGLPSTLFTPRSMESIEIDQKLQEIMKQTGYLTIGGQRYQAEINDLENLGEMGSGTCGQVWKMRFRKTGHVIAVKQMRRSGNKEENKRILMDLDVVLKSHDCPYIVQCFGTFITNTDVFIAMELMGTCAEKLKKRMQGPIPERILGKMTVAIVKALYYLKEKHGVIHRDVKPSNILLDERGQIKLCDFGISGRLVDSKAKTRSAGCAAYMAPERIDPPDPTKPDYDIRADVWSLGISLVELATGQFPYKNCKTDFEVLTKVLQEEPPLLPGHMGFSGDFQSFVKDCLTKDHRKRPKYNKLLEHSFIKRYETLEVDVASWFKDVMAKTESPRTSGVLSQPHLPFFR

[1] = Test conc 0.1 μM, N/E* = PoC for JNK1 = 100

Sequence of BRaf (P15056 whole entry): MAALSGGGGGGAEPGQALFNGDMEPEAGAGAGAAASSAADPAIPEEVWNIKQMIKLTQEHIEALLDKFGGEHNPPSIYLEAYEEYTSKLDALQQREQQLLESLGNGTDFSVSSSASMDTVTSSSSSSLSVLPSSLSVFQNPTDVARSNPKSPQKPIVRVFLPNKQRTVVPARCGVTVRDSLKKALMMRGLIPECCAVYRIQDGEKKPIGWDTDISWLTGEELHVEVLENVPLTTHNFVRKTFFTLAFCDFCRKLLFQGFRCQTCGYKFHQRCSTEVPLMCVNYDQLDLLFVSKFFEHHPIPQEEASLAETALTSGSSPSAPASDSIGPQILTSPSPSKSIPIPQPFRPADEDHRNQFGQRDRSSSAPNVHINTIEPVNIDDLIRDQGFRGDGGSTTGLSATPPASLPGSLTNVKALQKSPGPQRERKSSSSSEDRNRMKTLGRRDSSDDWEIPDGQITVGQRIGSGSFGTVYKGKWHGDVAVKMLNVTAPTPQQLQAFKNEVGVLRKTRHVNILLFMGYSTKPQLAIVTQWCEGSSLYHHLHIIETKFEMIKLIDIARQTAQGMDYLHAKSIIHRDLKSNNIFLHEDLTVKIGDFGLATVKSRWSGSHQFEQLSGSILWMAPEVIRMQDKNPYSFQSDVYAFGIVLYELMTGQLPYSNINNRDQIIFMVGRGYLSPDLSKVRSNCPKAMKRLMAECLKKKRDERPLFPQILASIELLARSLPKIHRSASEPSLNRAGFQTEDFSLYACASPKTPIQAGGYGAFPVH

SMILES	Selectivity BRaf/MKK4 (BRaf)	IC50 (MKK4 active) [nM]	IC50 (MEKK2) [nM]	remaining binding at 0.1 µM (MKK4) [%]	Selectivity JNK1/MKK4 (JNK1; Test conc 10 μM)	Selectivity MKK7/MKK4 (MKK7)	Selectivity JNK1/MKK4 (JNK1; [1])
CCCS(=O)(=O)Nc1ccc(F)c(C(=O)c2c[nH]c3ncc(-c4ccc(F)cc4C)cc23)c1F [Example 12, N-(2,4-Difluoro-3-(5-(4-fluoro-2-methylphenyl)-1H-pyrrolo[2,3-b]pyridine-3-carbonyl)phenyl)propane-1-sulfonamide]	7.8	500 to 1000	> 10000	10 to 30	>100	10	
CCCS(=O)(=O)Nc1ccc(F)c(C(=O)c2c[nH]c3ncc(-c4ccccc4Cl)cc23)c1F [Example 13, N-(3-(5-(2-Chlorophenyl)-1H-pyrrolo[2,3-b]pyridine-3-carbonyl)-2,4-difluorophenyl)propane-1-sulfonamide]	10.5	< 500	1000 to 10000	10 to 30	>100	10	
CS(=O)(=O)Nc1cccc(C(=O)c2c[nH]c3ncc(-c4ccc5c(c4)OCCO5)cc23)c1F [Example 36, N-(3-(5-(2,3-Dihydrobenzo[b][1,4]dioxin-6-yl)-1H-pyrrolo[2,3-b]pyridine-3-carbonyl)-2-fluorophenyl)methanesulfonamide]	18.8	> 10000	> 10000	< 10		19.6	N/E* (PoC for JNK1 = 100)
Cc1cc(F)ccc1-c1cnc2[nH]cc(C(=O)c3cccc(NS(C)(=O)=O)c3F)c2c1 [Example 37, N-(2-Fluoro-3-(5-(4-fluoro-2-methylphenyl)-1H-pyrrolo[2,3-b]pyridine-3-carbonyl)phenyl)methanesulfonamide]	13.2	500 to 1000	> 10000	< 10		14.1	N/E* (PoC for JNK1 = 100)
CS(=O)(=O)Nc1cccc(C(=O)c2c[nH]c3ncc(-c4ccccc4Cl)cc23)c1F [Example 38, N-(3-(5-(2-Chlorophenyl)-1H-pyrrolo[2,3-b]pyridine-3-carbonyl)-2-fluorophenyl) methanesulfonamide]	5.3	< 500	1000 to 10000	10 to 30		5.3	N/E* (PoC for JNK1 = 100)
CCCS(=O)(=O)Nc1ccc(F)c(C(=O)c2c[nH]c3ncc(-c4ccc(F)cc4Cl)cc23)c1F [Example 40, N-(3-(5-(2-Chloro-4-fluorophenyl)-1H-pyrrolo[2,3-b]pyridine-3-carbonyl)-2,4-difluorophenyl)propane-1-sulfonamide]	4.7	< 500	1000 to 10000	10 to 30		5.6	N/E* (PoC for JNK1 = 100)
CCCS(=O)(=O)Nc1ccc(F)c(C(=O)c2c[nH]c3ncc(-c4cc5c(cc4Cl)OCCO5)cc23)c1F [Example 44, N-(3-(5-(7-Chloro-2,3-dihydrobenzo[b][1,4]dioxin-6-yl)-1H-pyrrolo[2,3-b]pyridine-3-carbonyl)-2,4-difluorophenyl)propane-1-sulfonamide]	14	< 500	1000 to 10000	< 10		18	N/E* (PoC for JNK1 = 100)
CC(C)c1ccc(-c2cnc3[nH]cc(C(=O)c4cccc(NS(C)(=O)=O)c4F)c3c2)cc1 [Example 45]	N/E* (PoC for JNK1 = 100)	1000 to 10000	> 10000	> 30		N/E* (PoC for JNK1 = 100)	N/E* (PoC for JNK1 = 100)
COc1ccc(-c2cnc3[nH]cc(C(=O)c4cccc(NS(C)(=O)=O)c4F)c3c2)c(Cl)c1 [Example 46]	N/E* (PoC for JNK1 = 100)	< 500	1000 to 10000	< 10		10	N/E* (PoC for JNK1 = 100)
